The values below come from paper PMC9180903, “Substituted Syndecan-2-Derived Mimetic Peptides Show Improved Antitumor Activity over the Parent Syndecan-2-Derived Peptide” (International Journal of Molecular Sciences, 2022).

Series [1] has as its target T1, pro-domain of MMP-7 (PDMMP-7) (Homo sapiens, UniProt P09237).
T1 construct: TRX-His tag (N, cleaved yes); made in house
T1 sequence (P09237 18-94 limits assumed): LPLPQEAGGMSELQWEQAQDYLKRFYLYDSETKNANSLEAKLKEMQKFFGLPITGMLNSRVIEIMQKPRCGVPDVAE
In words: Fluorescence titration of peptides against MMP-7 pro-domain. The following applies: fluorescence spectroscopy; for Kd: ex 280 nm, em 347 nm, 10 μM PDMMP-7, peptide titrated up to 1:80, PBS pH 7.4, 25 °C. It is filed as binding. As to the method:
The gene encoding the pro-domain sequence (PDMMP-7) was cloned into the pET32a vector, which has a TRX-His tag at the N-terminus, for protein expression and purification. Between the TRX-His tag and the pro-domain, a TEV cleavage sequence was inserted. Proteins were overexpressed with 1 mM IPTG and isolated using Ni-NTA affinity chromatography. The purified TRX-His tag-PDMMP-7 was incubated with TEV protease at a 1:1 molar ratio for 12 h. The reaction mixture was further purified in phosphate-buffered saline (PBS) buffer at pH 7.4 using a HiLoad^TM superdex^TM 75 column (GE Healthcare, Little Chalfont, UK) to remove tags. The final protein sample was concentrated to 14 mg/mL for the fluorescence experiment.
The binding affinity between the PDMMP-7 and each synthetic peptide was measured at 298 K (25 °C) using an LS55 fluorescence spectrophotometer (Perkin Elmer, Waltham, MA, USA) at wavelengths of 280 nm (excitation) and 300–450 nm (emission). PDMMP-7 and peptides were prepared in phosphate-buffered saline (PBS) buffer at pH 7.4. The concentration of PDMMP-7 was set at 10 μM, and the input amount of each peptide versus PDMMP-7 was titrated at a molar ratio up to 1:80 using a thermostat cuvette. The dissociation constant (Kd) of the PDMMP-7/peptide complex was calculated using the equation log[(Fo − F)/F] = log(1/Kd) + nlog[ligand], where Fo and F represent the fluorescence intensity of PDMMP-7 at 347 nm in the absence and presence of the peptide, respectively, and n represents the number of binding sites.

Another series has as its system HCT116 cells. In words: MTT assay. It is filed as cell-based, human. The following applies: 50 nM peptide. As for the experimental part: (§1) Cell proliferation was measured by a colorimetric assay using 3-(4,5-dimethythiazol-2-yl) 2,5-diphenyltetrazolium bromide (MTT; Amresco, Solon, OH, USA) according to the manufacturer’s instructions. Briefly, cells were harvested with 0.05% trypsin/EDTA and seeded to 48-well plates (Thermo Fisher Scientific). After cells were allowed to attach to the plate for 24 h, medium containing 0.5 mg/mL MTT was added to each plate and incubation was continued for 1 h. The medium was then removed, and 200 μL of dimethyl sulfoxide (DMSO) was added to each plate for 30 min at room temperature. The mean concentration of absorbance at 570 nm in each set of samples was measured using a 96-well microtiter plate reader (Dynatech, Chantilly, VA, USA).

Another series deals with HT29-SDC2 cells. In words: MTT assay. In kind it is cell-based, human. The following applies: 50 nM, up to 48 h. As to the method:
as §1

The next series has as its system MMPs. Also noted: method as in PMID 29735645, PMID 9484924, PMID 10100701, PMID 12085177. The note with it: batimastat phase I, marimastat phase III; cited from earlier work.
For series [2], the target named is T2, pro-domain of matrix metalloproteinase-7 (MMP-7).
T2 sequence (P09237 whole entry, species assumed, looked up): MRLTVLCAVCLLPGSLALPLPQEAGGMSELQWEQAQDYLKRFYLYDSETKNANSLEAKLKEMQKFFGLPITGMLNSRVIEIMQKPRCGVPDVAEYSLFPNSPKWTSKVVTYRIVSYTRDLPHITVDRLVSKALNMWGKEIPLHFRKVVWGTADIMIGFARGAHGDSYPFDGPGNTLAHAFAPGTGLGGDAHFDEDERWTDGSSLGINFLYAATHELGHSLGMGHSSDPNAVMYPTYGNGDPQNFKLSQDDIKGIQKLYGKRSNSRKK
In words: other fluorescence titration; intrinsic fluorescence of PDMMP-7 (10 μM; excitation 280 nm, emission 300-450 nm, read at 347 nm), peptide titrated up to a molar ratio of 1:80, PBS pH 7.4, 298 K (25 °C).

Ends that are not written are not given here.

Molecule SGVYPIDDDDYASASGSGAD [S2-P] gave an equilibrium dissociation constant (Kd) in series [1] of 1220 µM.

For SGVYPIDDDDYDSASGSGAD [S2-D], binding in series [1] was characterised by a dissociation constant (Kd) of 550 µM. Moreover, the “cytotoxicity in HCT116 cells” value in the series with HCT116 cells is “did not exert cytotoxicity”. For the same molecule, in the series on HT29-SDC2 cells, the “cytotoxicity against HT29-SDC2 cells” value was “Neither peptide showed cytotoxicity”.

`CNC(=O)[C@@H](NC(=O)[C@H](CC(C)C)[C@H](O)C(=O)NO)C(C)(C)C` [marimastat]: in the series with MMPs, the “side effects in clinical trials” value is on record as “significant musculoskeletal toxicity”.

In the case of “SGVYPIDDLDYASASGSGAD [S2-L, modified SDC2-mimetic peptide derived from S2-P]”, the “binding to the MMP-7 pro-domain compared to S2-P” value in series [1] (PBS pH 7.4, 25 °C) is given as “reduced binding”.

For SGVYPIFDLDYDSASGSGAD [S2-FLD], the affinity in series [1], expressed as Kd, was 64 µM.

Molecule SGVYPIDDFDYESASGSGAD [S2-FE] came in with a dissociation constant Kd in series [1] of 456 µM. Moreover, the “cytotoxicity in HCT116 cells” value with HCT116 cells is listed as “did not exert cytotoxicity”. Moreover, the “cytotoxicity against HT29-SDC2 cells” value in the series with HT29-SDC2 cells was “Neither peptide showed cytotoxicity”.

As to SGVYPIDDFDYESASGSGAD [S2-FE, SDC2-mimetic peptide], the dissociation constant Kd in series [2] came to 456 µM.

SGVYPIFDLDYDSASGSGAD [S2-FLD, SDC2-mimetic peptide]: the Kd in series [2] was 64 µM.

Turning to SGVYPIDDDDYDSASGSGAD [S2-D, SDC2-mimetic peptide with an Ala-to-Asp substitution at the C-terminal side of Tyr 51], the Kd in series [2] was determined as 550 µM.

As for SGVYPIDDDDYASASGSGAD [S2-P, synthetic peptide corresponding to human SDC2 extracellular domain residues 41-60], the dissociation constant Kd in series [2] worked out at 1220 µM.

A word on the Kd: it is the equilibrium constant for the complex coming apart.
